Assay results as given in patent publication US20170348306A1, “METHODS OF TREATING CANCER” (GLAXOSMITHKLINE LLC, priority 2011, published 2017).
Read-outs that look alike come from different tables or passages of the source.

How the values were obtained:
[1] = system: H3K27me3/2/1, histone H3, EZH2, SUZ12, EED in lymphoma cell lines; assay: Western blot of H3K27 methylation status and PRC2 components following GSK126 treatment; format: cell-based, human
Description: Cell lines were obtained from the American Type Culture Collection or the Deutsche Sammlung von Mikroorganismen und Zellbulturen and maintained in the recommended cell culture media at 37° C. in 5% CO2. Cells were lysed with radioimmunoprecipitation (RIPA) buffer (ThermoScientific) and western blot analysis was conducted as previously described (41). Antibodies were obtained as previously described (41) or from Cell Signaling Technology (SUZ12, 3737), or Santa Cruz Biotechnology (EED, sc-28701).
Cells (2×10^5/well) were seeded into six-well tissue culture plates in the appropriate cell culture media 24 hours before treatment.

[2] = system: TXNIP and TNFRSF21 expression; assay: qRT-PCR of H3K27me3-enriched genes; format: cell-based, human; conditions: 72 hours
Description: RNA (2.8 μg) was reverse transcribed with MultiScribe Reverse Transcriptase (Applied BioSystems) according to the manufacturer's recommendations. The resulting cDNA was diluted and used along with TaqMan gene expression assays (Applied Biosystems; GAPDH, Hs03929097_g1; TNFRSF21, Hs00205419_m1; TXNIP, Hs00197750_m1). TaqMan Gene Expression Master Mix (Applied BioSystems), and a ViiA 7 Real-Time PCR System (Applied BioSystems) according to the manufacturer's recommendations to quantify gene expression.

[3] = system: B-cell lymphoma cell lines; assay: Cell proliferation assay (6 days, CellTiter-Glo), panel; format: cell-based; conditions: Homo sapiens, 144 h, read-out: growth IC50
From the text: Thus, Example 22 and Table 6 better reflect the inhibition of HZH2 inhibitors on cell lines, e.g. the lymphoma cell lines. DLBCL cell lines were the most sensitive to EZH2 inhibition (FIG. 11a). […] Evaluation of GSK126 in additional lymphoma cell lines and extensive genomic and epigenomic characterization will be required to fully elucidate the determinants of sensitivity among lymphoma subtypes.
Biochemical assays utilized the 5-member PRC2 complex (human Flag-EZH2, EED, SUZ12, AEBP2, RbAp48) containing either WT or mutant EZH2, [^3H-]SAM and the indicated peptide substrate; reactions were incubated for 30 minutes. Global histone modification levels were determined by ELISA or western blot methods using antibodies specific for total histone H3, H3K27me1, H3K27me2, or H3K27me3. Cell proliferation and Caspase-3/7 activity were assessed using CellTiter-Glo and Caspase-Glo 3/7 (Promega), respectively. Gene expression profiling was conducted using Affymetrix Human Genome U133 Plus 2.0 microarrays. Differentially-expressed probe sets were determined by fitting the data to a linear model using the limma statistical package (http://www.bioconductor.org) and carrying out pair-wise contrasts of treated versus control. […] H3K27me3 ChIP reads were aligned using Bowtie (56). […] A custom PERL script was utilized to quantify the average basal H3K27me3 ChIP-seq tag density across gene sets. […]

SMILES: CC[C@H](C)n1cc(C)c2c(C(=O)NCc3c(C)cc(C)[nH]c3=O)cc(-c3ccc(N4CCNCC4)nc3)cc21 [GSK126]
- Total histone H3 and PRC2 components ([1]; 25 nM-2 μM, 72 hrs): not affected
- H3K27me1 level ([1]; 72 hours): only weakly reduced at the highest inhibitor concentration
- lowest concentration with dose-responsive increases in gene expression ([2]; Pfeiffer and KARPAS-422, two H3K27me3-enriched genes): 25 nM
- gene expression changes (qRT-PCR) ([2]; Toledo, up to 1 μM GSK126): no transcriptional changes
- IC50 ([3]; Burkitt (BL) and Hodgkin's (HL) lymphoma cell lines, with the exception of Jiyoye): > 1300 nM
- IC50 ([3]; B-cell, six of the seven most sensitive DLBCL cell lines, harboring Y641N, Y641F, or A677G EZH2 mutations): 28 to 861 nM
